In brackets after ≈: the same amount, converted by molar mass. Like-named read-outs stand apart in the source and are kept apart here. Positions of bridges follow the written chain, without caps; N, C: chain ends. Residues, ends and D or L forms follow the SMILES beside them. Chains are numbered I, II in the order given. *: point of attachment. Cys(free,S-linked) = N[C@@H](CS*)C(=O)O; Myristoyl = CCCCCCCCCCCCCC(=O)*; SPy = c1ccc(S*)nc1
What was measured:
[1] = tested on: Bacillus subtilis strain 168S
Experimental: Compounds were tested for antimicrobial activity against a variety of bacterial strains that included one or more of the following microorganisms: Escherichia coli strain TG1, Bacillus subtilis strain 168S, Staphylococcus aureus H, Enterococcus faecium STR 207 (Van A resistant phenotype), Enrterococcus faecium STR211 (Vancomycin sensitive phenotype), and Enterococcus faecalis V 583 (Van B resistant phenotype). For the testing of compounds for antimicrobial activity against E. coli and B. subtilis cultures of each bacterial strain were diluted in 2.5 mL of fresh LB broth to approximately 5×10^6 cells/mL for assay. […] Antibacterial activity was determined from inspection of the turbidity of the different cultures and from determination of the optical density of the cultures at a wavelength of 600 nm. For the testing of compounds for antimicrobial activity against E. Faecium STR 207, E. faecium 211, E. faecalis V 583, and S. aureus H, a different procedure was used. These microorganisms were cultured in brain heart/0.5% yeast extract (BHY) broth and incubated overnight at 37° C. A sample of each culture was then diluted 40-fold in fresh BHY broth and incubated at 37° C. for 1 h. The resultant mid-log phase cultures were diluted to 106 cfu/mL, then added to wells of 96-well polypropylene plates. […] The 96-well plates were covered and incubated at 37° C. overnight. Minimum inhibitory concentrations were determined by inspection of turbidity after incubation.

[2] = tested on: Escherichia coli strain TG1
Experimental: (§1) Compounds were tested for antimicrobial activity against a variety of bacterial strains that included one or more of the following microorganisms: Escherichia coli strain TG1, Bacillus subtilis strain 168S, Staphylococcus aureus H, Enterococcus faecium STR 207 (Van A resistant phenotype), Enrterococcus faecium STR211 (Vancomycin sensitive phenotype), and Enterococcus faecalis V 583 (Van B resistant phenotype). For the testing of compounds for antimicrobial activity against E. coli and B. subtilis cultures of each bacterial strain were diluted in 2.5 mL of fresh LB broth to approximately 5×10^6 cells/mL for assay. […] The cultures were grown with shaking for up to 16 h at 37° C. for E. coli cultures and 30° C. for B. subtilis cultures. Antibacterial activity was determined from inspection of the turbidity of the different cultures and from determination of the optical density of the cultures at a wavelength of 600 nm. For the testing of compounds for antimicrobial activity against E. Faecium STR 207, E. faecium 211, E. faecalis V 583, and S. aureus H, a different procedure was used. These microorganisms were cultured in brain heart/0.5% yeast extract (BHY) broth and incubated overnight at 37° C. A sample of each culture was then diluted 40-fold in fresh BHY broth and incubated at 37° C. for 1 h. The resultant mid-log phase cultures were diluted to 106 cfu/mL, then added to wells of 96-well polypropylene plates. […] The 96-well plates were covered and incubated at 37° C. overnight. Minimum inhibitory concentrations were determined by inspection of turbidity after incubation.

[3] = tested on: Enterococcus faecalis V 583 (Van B resistant phenotype); details: E. faecalis V 583
Experimental: as §1

Staphylococcus aureus H = tested on: Staphylococcus aureus H
Experimental: as §1

[4] = tested on: Enterococcus faecium STR 211 (Vancomycin sensitive phenotype)
Experimental: as §1

physchem = details: dimethylsulphoxide
Experimental: The 2-thiopyridyl content of the peptide was measured by dissolving it to around 0.03 mM to 0.2 mM in 0.1 M Sodium Borate pH 8.0 and reducing by addition of dithiothreitol to 5 mM. The change in optical density at 343 nm was used to calculate the amount of pyridine 2-thione released using an extinction coefficient at this wavelength of 8080 cm−1 M−1.

[5] = tested on: Enterococcus faecium STR 207 (Van A resistant phenotype); details: E. faecium STR 207
Experimental: as §1

[6] = tested on: sensitised sheep erythrocytes; experiment: Haemolysis assay; assay type: cell-based; details: 1 hour at 37° C., printed μM or uM, read-out: LC50 (concentration of compound required to give 50% lysis)
Experimental: (§2) Lysis of sensitised sheep erythrocytes was measured using a standard haemolytic assay using a v-bottom microtitre plate format as follows:
(§3) 50 microlitres of a range of concentrations of compound diluted in Hepes buffer were mixed with 100 microlitres of sensitised sheep erythrocytes and then incubated for 1 hour at 37° C. Samples were spun at 1600 rpm at ambient temperature for 3 minutes before transferring 150 microlitres of supernatant to a flat bottom microtitre plate and determining the absorption at 405 or 410 nm. Maximum lysis (Amax) was determined by incubating serum with erythrbcytes in the presence of human serum diluted 1:400 (final concentration in assay mixture) in 0.1 M Hepes/0.15 M NaCl/0.1% gelatin pH 7.4. Background lysis (Ao) was determined by incubating erythrocytes in the absence of any serum or compound, using PBS as a control.

Haemolysis assay = assay type: cell-based; details: sensitised sheep erythrocytes, 1 hour at 37° C., printed μM or uM, read-out: LC50 (concentration of compound required to give 50% lysis)
Experimental: as §2, §3

[7] = STR 211 (Vancomycin sensitive phenotype)

Compound	minimum inhibitory concentration to prevent the growth of B. subtilis strain 168S ([1]; 6 h)	minimum inhibitory concentration to prevent the growth of B. subtilis strain 168S ([1]; 24 h)	minimum inhibitory concentration to prevent the growth of E. coli strain TG1 ([2]; strain TG1, 6 h)	minimum inhibitory concentration to prevent the growth of E. coli strain TG1 ([2]; strain TG1, 16 h)	minimum inhibitory concentration [3]	minimum inhibitory concentration (Staphylococcus aureus H; H)	minimum inhibitory concentration [4, 7]	solubility (physchem)	minimum inhibitory concentration [5]	CC50 [6]	minimum inhibitory concentration (Staphylococcus aureus H; S. aureus H)	minimum inhibitory concentration ([4]; E. faecium STR 211)	CC50 at 1 hour (Haemolysis assay)
CCCCCCCCCCCCCC(=O)NCC(=O)N[C@@H](CO)C(=O)N[C@@H](CO)C(=O)N[C@@H](CCCCN)C(=O)N[C@@H](CO)C(=O)N1CCC[C@H]1C(=O)N[C@@H](CO)C(=O)N[C@@H](CCCCN)C(=O)N[C@@H](CCCCN)C(=O)N[C@@H](CCCCN)C(=O)N[C@@H](CCCCN)C(=O)N[C@@H](CCCCN)C(=O)N[C@@H](CCCCN)C(=O)N1CCC[C@H]1C(=O)NCC(=O)N[C@@H](CC(=O)O)C(=O)N[C@@H](CSSC[C@H](NC(=O)[C@H](CC(=O)O)NC(=O)CNC(=O)[C@@H]1CCCN1C(=O)[C@H](CCCCN)NC(=O)[C@H](CCCCN)NC(=O)[C@H](CCCCN)NC(=O)[C@H](CCCCN)NC(=O)[C@H](CCCCN)NC(=O)[C@H](CCCCN)NC(=O)[C@H](CO)NC(=O)[C@@H]1CCCN1C(=O)[C@H](CO)NC(=O)[C@H](CCCCN)NC(=O)[C@H](CO)NC(=O)[C@H](CO)NC(=O)CNC(=O)CCCCCCCCCCCCC)C(N)=O)C(N)=O [APT540] (I: Myristoyl-GSSKSPSKKKKKKPGDC-NH2 / II: Myristoyl-GSSKSPSKKKKKKPGDC-NH2; disulfide I:17-II:17)	7 µg/mL	7 µg/mL	67 µg/mL	200 µg/mL	–	–	–	–	–	–	–	–	–
CCCCCCCCCCCCCC(=O)NCC(=O)N[C@@H](CO)C(=O)N[C@@H](CO)C(=O)N[C@@H](CCCCN)C(=O)N[C@@H](CO)C(=O)N1CCC[C@H]1C(=O)N[C@@H](CO)C(=O)N[C@@H](CCCCN)C(=O)N[C@@H](CCCCN)C(=O)N[C@@H](CCCCN)C(=O)N[C@@H](CCCCN)C(=O)N[C@@H](CCCCN)C(=O)N[C@@H](CCCCN)C(=O)N1CCC[C@H]1C(=O)NCC(=O)N[C@@H](CC(=O)O)C(=O)N[C@@H](CSSC[C@H](N)C(=O)O)C(N)=O [APT541] (Myristoyl-GSSKSPSKKKKKKPGDC(Cys(free,S-linked))-NH2)	–	–	–	–	256 µg/mL (≈ 121 µM)	64 µg/mL (≈ 30.2 µM)	64 µg/mL (≈ 30.2 µM)	–	–	–	–	–	–
CCCCCCCCCCCCCC(=O)NCC(=O)N[C@@H](CO)C(=O)N[C@@H](CO)C(=O)N[C@@H](CCCCN)C(=O)N[C@@H](CO)C(=O)N1CCC[C@H]1C(=O)N[C@@H](CO)C(=O)N[C@@H](CCCCN)C(=O)N[C@@H](CCCCN)C(=O)N[C@@H](CCCCN)C(=O)N[C@@H](CCCCN)C(=O)N[C@@H](CCCCN)C(=O)N[C@@H](CCCCN)C(=O)N1CCC[C@H]1C(=O)NCC(=O)N[C@@H](CC(=O)O)C(=O)N[C@@H](CSSc1ccccn1)C(N)=O [APT542] (Myristoyl-GSSKSPSKKKKKKPGDC(SPy)-NH2)	3 µg/mL	22 µg/mL	22 µg/mL	67 µg/mL	256 µg/mL (≈ 121 µM)	64 µg/mL (≈ 30.4 µM)	32 µg/mL (≈ 15.2 µM)	≥ 10000 µg/mL	64 µg/mL (≈ 30.4 µM)	–	–	–	–
CN[C@H](CC(C)C)C(=O)N[C@H]1C(=O)N[C@@H](CC(N)=O)C(=O)N[C@H]2C(=O)N[C@H]3C(=O)N[C@H](C(=O)N[C@H](C(=O)NCCSSc4ccccn4)c4cc(O)cc(O)c4-c4cc3ccc4O)[C@H](O)c3ccc(c(Cl)c3)Oc3cc2cc(c3O[C@@H]2O[C@H](CO)[C@@H](O)[C@H](O)[C@H]2O[C@H]2C[C@](C)(N)[C@H](O)[C@H](C)O2)Oc2ccc(cc2Cl)[C@H]1O.Cl [APT2033]	–	–	–	–	32 µg/mL	–	–	–	256 µg/mL	> 166 µM	4 µg/mL	2 µg/mL	–
CN[C@H](CC(C)C)C(=O)N[C@H]1C(=O)N[C@@H](CC(N)=O)C(=O)N[C@H]2C(=O)N[C@H]3C(=O)N[C@H](C(=O)N[C@H](C(=O)NCCS)c4cc(O)cc(O)c4-c4cc3ccc4O)[C@H](O)c3ccc(c(Cl)c3)Oc3cc2cc(c3O[C@@H]2O[C@H](CO)[C@@H](O)[C@H](O)[C@H]2O[C@H]2C[C@](C)(N)[C@H](O)[C@H](C)O2)Oc2ccc(cc2Cl)[C@H]1O.Cl [APT2035]	–	–	–	–	16 µg/mL	–	–	–	–	> 166 µM	8 µg/mL	2 µg/mL	–
CCCCCCCCCCCCCC(=O)NCC(=O)N[C@@H](CO)C(=O)N[C@@H](CO)C(=O)N[C@@H](CCCCN)C(=O)N[C@@H](CO)C(=O)N1CCC[C@H]1C(=O)N[C@@H](CO)C(=O)N[C@@H](CCCCN)C(=O)N[C@@H](CCCCN)C(=O)N[C@@H](CCCCN)C(=O)N[C@@H](CCCCN)C(=O)N[C@@H](CCCCN)C(=O)N[C@@H](CCCCN)C(=O)N1CCC[C@H]1C(=O)NCC(=O)N[C@@H](CC(=O)O)C(=O)N[C@@H](CSSCCNC(=O)[C@H]1NC(=O)[C@H]2NC(=O)[C@H](NC(=O)[C@@H]3NC(=O)[C@H](CC(N)=O)NC(=O)[C@H](NC(=O)[C@@H](CC(C)C)NC)[C@H](O)c4ccc(c(Cl)c4)Oc4cc3cc(c4O[C@@H]3O[C@H](CO)[C@@H](O)[C@H](O)[C@H]3O[C@H]3C[C@](C)(N)[C@H](O)[C@H](C)O3)Oc3ccc(cc3Cl)[C@H]2O)c2ccc(O)c(c2)-c2c(O)cc(O)cc21)C(N)=O [APT2036]	–	–	–	–	8 µg/mL (≈ 2.28 µM)	–	–	–	8 µg/mL (≈ 2.28 µM)	–	4 µg/mL (≈ 1.14 µM)	8 µg/mL (≈ 2.28 µM)	71 µM
CCCCCCCCCCCCCC(=O)NCC(=O)N[C@@H](CO)C(=O)N[C@@H](CO)C(=O)N[C@@H](CCCCN)C(=O)N[C@@H](CO)C(=O)N1CCC[C@H]1C(=O)N[C@@H](CO)C(=O)N[C@@H](CCCCN)C(=O)N[C@@H](CC(=O)O)C(=O)N[C@@H](CCCCN)C(=O)N[C@@H](CC(=O)O)C(=O)N[C@@H](CCCCN)C(=O)N[C@@H](CC(=O)O)C(=O)N1CCC[C@H]1C(=O)NCC(=O)N[C@@H](CC(=O)O)C(=O)N[C@@H](CSSCCNC(=O)[C@H]1NC(=O)[C@H]2NC(=O)[C@H](NC(=O)[C@@H]3NC(=O)[C@H](CC(N)=O)NC(=O)[C@H](NC(=O)[C@@H](CC(C)C)NC)[C@H](O)c4ccc(c(Cl)c4)Oc4cc3cc(c4O[C@@H]3O[C@H](CO)[C@@H](O)[C@H](O)[C@H]3O[C@H]3C[C@](C)(N)[C@H](O)[C@H](C)O3)Oc3ccc(cc3Cl)[C@H]2O)c2ccc(O)c(c2)-c2c(O)cc(O)cc21)C(N)=O [APT2041]	–	–	–	–	16 µg/mL (≈ 4.62 µM)	–	–	–	16 µg/mL (≈ 4.62 µM)	–	8 µg/mL (≈ 2.31 µM)	4 µg/mL (≈ 1.15 µM)	4.5 µM

— patent publication US7078380B2, “Antibacterial agents comprising conjugates of glycopeptides and peptidic membrane associating elements” (priority 2000, dated 2006)
